According to patent US12630796B2, “System, device, and method for single-cell encapsulation and culture” (UNIVERSITY OF MARYLAND, COLLEGE PARK, priority 2020, dated 2026):
Structures can show the parent of a compound that is named as a salt.

Tested on: 1csc colony cells obtained from MDA-MB-231 cells
Assay: In vitro cell viability after drug treatment (CCK-8)
Type: cell-based, human
Conditions: 1csc colony cells versus cells from 2Dcells, Ucells and Mcells cultures; 24 hours treatment; FIG. 6A-6B
Method: For 2Dcells culture, human MDA-MB-231, MCF-7, PC-3, and OVCAR-8 cancer cells were cultured in Corning (Lowell, MA, USA) T75 flasks in DMEM, EMEM, F12K, and RPMI-1640 medium supplemented with 10% FBS and 1% penicillin/streptomycin at 37° C. in a humidified 5% CO2 incubator, respectively. For Ucells culture, cells were cultured in Corning (Lowell, MA, USA) 6-well ultralow attachment plate (ULAP) at a density of 20,000 cells ml^−1 in CSC medium consisting of serum-free DMEM/F12 supplemented with 5 μg ml^−1 insulin, 20 ng ml^−1 epidermal growth factor (EGF), 20 ng ml^−1 basic fibroblast growth factor (bFGF), 1×B27 (Invitrogen, Carlsbad, CA, USA), 0.4% (w v^−1) bovine serum albumin, 100 U ml^−1 penicillin, and 100 μg ml^−1 streptomycin. The cell spheroids or aggregates were collected after 7 days for further experiments. For lcsc and Mcells cultures, microcapsules encapsulated with one (for 1csc) or multiple (for Mcells) cells were cultured in the aforementioned CSC medium. To determine viability of cells under 2Dcells culture, cells were transferred into 96-well plates first. […] The cell viability was then evaluated using the CCK-8 cell proliferation reagent per the manufacturer's instructions. Cell viability was calculated as the ratio of the cell number determined for each group with a treatment to that of control group with no treatment.

| SMILES | resistance of the 1csc colony cells to the drug (cell viability) |
| --- | --- |
| CCc1c2c(nc3ccc(OC(=O)N4CCC(N5CCCCC5)CC4)cc13)-c1cc3c(c(=O)n1C2)COC(=O)[C@]3(O)CC [CPT-11, Irinotecan/camptothecin-11] | significantly more resistant |
| COc1cccc2c1C(=O)c1c(O)c3c(c(O)c1C2=O)C[C@@](O)(C(=O)CO)C[C@@H]3O[C@H]1C[C@H](N)[C@H](O)[C@H](C)O1 [DOX, Doxorubicin hydrochloride] | significantly more resistant |
